Measurements from paper PMC7395068, “The evolution of strategies to minimise the risk of human drug-induced liver injury (DILI) in drug discovery and development” (Archives of Toxicology, 2020).
Read-outs that look alike come from different tables or passages of the source.

Legend:
[1] = Plasma free fraction (fu) and unbound Cmax (Cmax,u); assay type: in vitro ADME, human; conditions: unbound plasma Cmax
Description: The prediction of DILI severity was evaluated further using the 3D combined HCI assays using plasma-free fraction. The majority of fu values were obtained from literature, when unavailable in-house prediction was utilised. Unbound plasma Cmax concentrations (Cmax,u) were derived by multiplying total plasma Cmax with the corresponding free fraction (fu) for each compound.

[2] = cited from earlier work; for DILI severity category (Chen 2016): human DILI classification, LTKB DILIrank
[3] = system: primary human hepatocytes, NIH3T3 fibroblasts, BSEP, CYP3A4; conditions: cited from earlier work
HepG2 cells [4] = conditions: cited from earlier work
HepG2 cells [5] = conditions: cited from earlier work; remark: listed apart in the source
human hepatocytes = conditions: cited from earlier work
PHH = conditions: cited from earlier work
hLiMTs [6] = conditions: cited from earlier work
[7] = system: HepG2 C3A spheroid, BSEP, Glu/Gal in HepG2 cells, bioactivation; conditions: cited from earlier work
[8] = read-out: Human plasma Cmax; total plasma Cmax.tot, median of 9 literature references; cited from earlier work
[9] = plasma free fraction; cited from earlier work
[10] = cited from earlier work
[11] = system: THLE-Null and THLE-3A4 cells; conditions: In vitro Assay; ref Gustafsson 2014; cited from earlier work
[12] = system: HepG2 cells, primary human hepatocytes; conditions: In vitro Assay; ref Garside 2014; cited from earlier work
[13] = ref Chen 2011; cited from earlier work
rBsep = conditions: In vitro Assay; ref Dawson 2012; cited from earlier work
hLiMTs [14] = assay: Combined HCI (HCS) and cellular ATP 3D assay in hLiMTs; conditions: for AC50 / minimal effective concentration: Homo sapiens
HepaRG spheroids = assay: Combined HCI (HCS) and cellular ATP 3D assay in HepaRG spheroids; conditions: for AC50 / minimal effective concentration: Homo sapiens
[15] = In vitro Assay, ref Schadt 2015
[16] = In vitro Assay, ref Persson 2013
[17] = In vitro Assay, ref Proctor 2017
[18] = Microtissue model structural based (HCI), combined HCS and ATP, MEC < 25 × Cmax.tot cut-off

CCc1ccc(CCOc2ccc(CC3SC(=O)NC3=O)cc2)nc1 (stereo not shown) [pioglitazone, reference compound]
Human plasma Cmax,u [1]: 29 nM | DILI severity category (Chen et al. [2016]) ([2]; LTKB DILIrank category, ref Chen et al. 2016): Less | DILI severity category (Chen 2016) ([2]; ref Chen et al. 2016): Less | DILI severity category (Chen 2016) ([2]; ref Chen et al. 2016, listed as Pioglitazone): Less DILI severity | DILI severity category ([2]; human DILI severity, ref Chen et al.): Less | DILI +VE (5-8), DILI -VE (-4) ([2]; ref Chen 2016): +VE | DILI severity category ([2]; ref Chen 2016): vLess-DILI-Concern | DILI in vitro assay prediction, Schadt (2015) ([3]; BSEP & Metabolism based, ref Schadt et al. 2015): +VE | Cellular toxicity (3T3 cells) [3, 15]: -VE | Combined Assay [3, 15]: +VE | GSH adduct HML [3, 15]: -VE | Hepatocyte cellular toxicity [3, 15]: +VE | MitoTox 3T3 [3, 15]: -VE | TDI CYP3A4 [3, 15]: -VE | hBSEP inhibition [3, 15]: +VE | Structural based (HCI) (HepG2 cells [4]; In vitro Assay, ref O'Brien 2006): +VE | DILI in vitro assay prediction, O'Brien (2006) (HepG2 cells [4]; Structural based (HCI), HepG2, ref O'Brien et al. 2006): -VE | Cluser analysis (HepG2 cells [5]; [16]): -VE | Structural based (HCI) (HepG2 cells [5]; [16]): +VE | DILI in vitro assay prediction, Persson (2013) (HepG2 cells [5]; Structural based (HCI), HepG2, ref Persson et al. 2013): -VE | Structural based (HCI) (human hepatocytes; In vitro Assay, ref Xu 2008): -VE | DILI in vitro assay prediction, Xu (2008) (human hepatocytes; Structural based (HCI), human hepatocytes, ref Xu et al. 2008): -VE | PHH/100xCmax, Proctor (2017) (PHH; 2D PHH, ATP, IC50 < 100 × Cmax.tot, ref Proctor et al. 2017): -VE | PHH/100uM, Proctor (2017) (PHH; 2D PHH, ATP, IC50 threshold 100 µM, ref Proctor et al. 2017): -VE | PHH ATP <100uM (PHH; [17]): -VE | hLiMTs ATP <100uM (hLiMTs [6]; [17]): -VE | hLiMTs/100xCmax, Proctor (2017) (hLiMTs [6]; hLiMTs, ATP, IC50 < 100 × Cmax.tot, ref Proctor et al. 2017): -VE | hLiMTs/100uM, Proctor (2017) (hLiMTs [6]; hLiMTs, ATP, IC50 threshold 100 µM, ref Proctor et al. 2017): -VE | Bayesian Machine Learning DILI prediction, Williams (2019) ([7]; Bayesian modeling, ref Williams et al. 2019): +VE | Bayesian Machine Learning ([7]; In vitro Assay, ref Williams 2019): +VE | Cmax [8]: 2950 nM | fu [9]: 0.010 | Assigned DILI category ([10]; Chen et al. 2016 or literature alignment, ref Chen et al. 2016): 2 | In vivo DILI ([10]; […]): -VE | In vivo DILI ([10]; ref Dawson 2012): +VE | In vivo DILI ([10]; ref Garside 2014): +VE | in vivo DILI categorisation in the literature ([10]; ref Garside et al. 2014, Proctor et al. 2017, Gustafsson et al. 2014): in vivo DILI positive | In vivo DILI ([10]; ref Gustafsson 2014): +VE | In vivo DILI ([10]; ref O'Brien 2006): -VE | in vivo DILI categorisation in the literature ([10]; ref O'Brien et al. 2006, Xu et al. 2008, Dawson et al. 2012, Persson et al. 2013): non-DILI potential | In vivo DILI ([10]; ref Persson 2013): -VE | In vivo DILI ([10]; ref Proctor 2017): +VE | In vivo DILI ([10]; ref Schadt 2015): +VE | In vivo DILI ([10]; ref Williams 2019): +VE | In vivo DILI ([10]; ref Xu 2008): -VE | THLE-Null [11]: -VE | THLE-Null/3A4 [11]: -VE | Cluster 1-6 +VE Assay [12]: +VE | DILI Score (FDA) (1-8) [13]: 3 | Inhibition of rBsep cutoff<1& cmax u>.2 (rBsep): +VE | Inhibition of rBsep cutoff<3 (rBsep): +VE | AC50 (hLiMTs [14]; read-out: ATP endpoint AC50): 106 µM | minimal effective concentration (hLiMTs [14]; read-out: ATP endpoint MEC): 38.1 µM | AC50 (hLiMTs [14]; read-out: HCS endpoint AC50): 9.95 µM | minimal effective concentration (hLiMTs [14]; read-out: HCS endpoint MEC): 5.35 µM | DILI prediction hLiMTs (HCS-MEC) (hLiMTs [14]; [18]): +VE (MEC < 25 × Cmax.tot cut-off) | hLiMTs <25x Avg Cmax ATP (hLiMTs [14]; hLiMTs, ATP endpoint, cut-off <25x Avg Cmax): +ve | hLiMTs <100x Avg Cmaxu ATP (hLiMTs [14]; hLiMTs, ATP endpoint, cut-off <100x Avg Cmaxu): -ve | hLiMTs <25x Avg Cmax HCS (hLiMTs [14]; hLiMTs, HCS endpoints, cut-off <25x Avg Cmax): +ve | hLiMTs <100x Avg Cmaxu HCS (hLiMTs [14]; hLiMTs, HCS endpoints, cut-off <100x Avg Cmaxu): -ve | hLiMTs <25x Avg Cmax All (hLiMTs [14]; hLiMTs, all endpoints (ATP and HCS), cut-off <25x Avg Cmax): +ve | hLiMTs Cmax max All (hLiMTs [14]; hLiMTs, all endpoints, Cmax max used): +ve | hLiMTs Cmax min All (hLiMTs [14]; hLiMTs, all endpoints, Cmax min used): +ve | hLiMTs <10 uM All (hLiMTs [14]; hLiMTs, all endpoints, cut-off <10 uM): +ve (<10 uM) | hLiMTs <100x Avg Cmaxu All (hLiMTs [14]; hLiMTs, all endpoints, cut-off <100x Avg Cmaxu): -ve | HepaRG <25x Avg Cmax ATP (HepaRG spheroids; HepaRG, ATP endpoint, cut-off <25x Avg Cmax): +ve | HepaRG <100x Avg Cmaxu ATP (HepaRG spheroids; HepaRG, ATP endpoint, cut-off <100x Avg Cmaxu): -ve | HepaRG <25x Avg Cmax HCS (HepaRG spheroids; HepaRG, HCS endpoints, cut-off <25x Avg Cmax): +ve | HepaRG <100x Avg Cmaxu HCS (HepaRG spheroids; HepaRG, HCS endpoints, cut-off <100x Avg Cmaxu): -ve | HepaRG <25x Avg Cmax All (HepaRG spheroids; HepaRG, all endpoints (ATP and HCS), cut-off <25x Avg Cmax): +ve | HepaRG Cmax max All (HepaRG spheroids; HepaRG, all endpoints, Cmax max used): +ve | HepaRG Cmax min All (HepaRG spheroids; HepaRG, all endpoints, Cmax min used): +ve | HepaRG <10 uM All (HepaRG spheroids; HepaRG, all endpoints, cut-off <10 uM): -ve | HepaRG <100x Avg Cmaxu All (HepaRG spheroids; HepaRG, all endpoints, cut-off <100x Avg Cmaxu): -ve | AC50 (HepaRG spheroids; HepaRG, read-out: ATP endpoint AC50): 67.5 µM | minimal effective concentration (HepaRG spheroids; HepaRG, read-out: ATP endpoint MEC): 44.7 µM | AC50 (HepaRG spheroids; HepaRG, read-out: HCS endpoint AC50): 93.7 µM | minimal effective concentration (HepaRG spheroids; HepaRG, read-out: HCS endpoint MEC): 39.2 µM | DILI prediction HepaRG spheroids (HCS-MEC) (HepaRG spheroids; [18]): +VE (MEC < 25 × Cmax.tot cut-off)
